Test results taken from EP0760375A1, “ANTITUMOR INDOLOPYPROLOCARBAZOLE DERIVATIVE” (BANYU PHARMACEUTICAL CO., LTD., priority 1994, dated 1995).
Like-named read-outs stand apart in the source and are kept apart here.

Legend:
[1] = test system: mouse leukemia cells (P388); test: Growth-inhibiting activity (CTX) against cancer cells, Thiazoyl Blue assay; assay type: cell-based; settings: 72 hours incubation with test compound, absorbance at 560 nm
Description: (§1) 50 µl of a cell culture medium (RPMI-1640 medium containing 10% bovine fetal serum) containing 1 x 10^3 mouse leukemia cells (P388), human gastric cancer cells (MKN-45), human pulmonary cancer cells (PC-13) or human rectal cancer cells (DLD-1) was pipetted into the wells of a 96-well microplate, and incubated at 37°C under 5% CO2 for 24 hours. Then, 50 µl of a test solution containing each test compound was added, and the culture medium was further incubated at 37°C under 5% CO2 for 72 hours. After 10 µl of 0.5% Thiazoyl Blue was added to the culture medium, an enzyme reaction was carried out by incubating the culture medium at 37°C under 5% CO2 for 2 hours. After the reaction was stopped by the addition of 20% sodium dodecyl sulfate (SDS), the culture medium was further incubated at 37°C for 16 hours to dissolve the pigment so formed. Then, the absorbances at 560 nm were measured and compared with that obtained in a control group. The compound of the formula [drawing 7] was used as the control compound.

[2] = test system: human rectal cancer cells (DLD-1); test: as above; assay type: cell-based; settings: DLD-1 cells, 72 hours incubation with test compound, absorbance at 560 nm
Description: as §1

[3] = test system: human gastric cancer cells (MKN-45); test: as above; assay type: cell-based; settings: MKN-45 cells, 72 hours incubation with test compound, absorbance at 560 nm
Description: as §1

[4] = test system: human pulmonary cancer cells (PC-13); test: as above; assay type: cell-based; settings: PC-13 cells, 72 hours incubation with test compound, absorbance at 560 nm
Description: as §1

[5] = test system: human gastric cancer MKN-45; test: Effect on human gastric cancer MKN-45 solid tumor transplanted under the skin of mice; assay type: in vivo; settings: Mus musculus, MKN-45, iv, total dose at which tumor growth was inhibited by 75%, injection into the caudal vein, read-out: GID75 (mg/kg total)
Description: A MKN-45 solid tumor which had previously been grown by transplantation under the skin of a nude mouse was minced, and 3 mm cubes of the tumor were transplanted under the skin of mice used for this test. Starting from the time when the transplanted tumor grew to 0.3 cm^3, a treatment was carried out by injecting a dose of each test drug into the caudal vein of the mice, once a day, for 5 consecutive days and, after two days' pause, injecting the test drug for 5 days (treatment schedule: 5/w x 2) or four times at intervals of 3 or 4 days (treatment schedule: 2/w x 2). Twenty or thirty-two days after the start of the treatment, the larger diameter (L) and smaller diameter (W) of the tumor were measured, and its volume (V) was determined ( […] [formula] ). The degree of tumor growth inhibition was calculated from this volume, and the total dose at which the tumor growth was inhibited by 75% (GID75, mg/kg) was determined.

Structure (SMILES) | IC50 [1] | IC50 [2] | IC50 [3] | IC50 [4] | ED75 ([5]; treatment schedule 5/w x 2) | ED75 ([5]; treatment schedule 2/w x 2)
O=C1c2c(c3c4cccc(O)c4n([C@@H]4O[C@H](CO)[C@@H](O)[C@H](O)[C@H]4O)c3c3[nH]c4c(O)cccc4c23)C(=O)N1NC(CO)CO [Compound [I-A]] | 0.037 µM | 0.67 µM | 0.29 µM | 0.34 µM | 27 mg/kg | 
O=C1c2c(c3c4ccc(O)cc4n([C@@H]4O[C@H](CO)[C@@H](O)[C@H](O)[C@H]4O)c3c3[nH]c4cc(O)ccc4c23)C(=O)N1NC(CO)CO [Compound [I-B]] | 0.002 µM | 0.1 µM | 0.011 µM | 0.035 µM |  | 3 mg/kg
O=CNN1C(=O)c2c(c3c4cccc(O)c4n([C@@H]4O[C@H](CO)[C@@H](O)[C@H](O)[C@H]4O)c3c3[nH]c4c(O)cccc4c23)C1=O [Control compound, reference compound] | 0.12 µM | 73 µM | 0.5 µM | 1.4 µM | 170 mg/kg | 
